Changes are numbered by the printed parent chain.
Assays:
Assay in all cases: intrinsic tryptophan fluorescence quenching
Type in all cases: binding
[1] = target: T1, BjPutA (proline utilization A) (Bradyrhizobium diazoefficiens, UniProt Q89E26, D779W)
T1 sequence (Q89E26 1-999 D779W): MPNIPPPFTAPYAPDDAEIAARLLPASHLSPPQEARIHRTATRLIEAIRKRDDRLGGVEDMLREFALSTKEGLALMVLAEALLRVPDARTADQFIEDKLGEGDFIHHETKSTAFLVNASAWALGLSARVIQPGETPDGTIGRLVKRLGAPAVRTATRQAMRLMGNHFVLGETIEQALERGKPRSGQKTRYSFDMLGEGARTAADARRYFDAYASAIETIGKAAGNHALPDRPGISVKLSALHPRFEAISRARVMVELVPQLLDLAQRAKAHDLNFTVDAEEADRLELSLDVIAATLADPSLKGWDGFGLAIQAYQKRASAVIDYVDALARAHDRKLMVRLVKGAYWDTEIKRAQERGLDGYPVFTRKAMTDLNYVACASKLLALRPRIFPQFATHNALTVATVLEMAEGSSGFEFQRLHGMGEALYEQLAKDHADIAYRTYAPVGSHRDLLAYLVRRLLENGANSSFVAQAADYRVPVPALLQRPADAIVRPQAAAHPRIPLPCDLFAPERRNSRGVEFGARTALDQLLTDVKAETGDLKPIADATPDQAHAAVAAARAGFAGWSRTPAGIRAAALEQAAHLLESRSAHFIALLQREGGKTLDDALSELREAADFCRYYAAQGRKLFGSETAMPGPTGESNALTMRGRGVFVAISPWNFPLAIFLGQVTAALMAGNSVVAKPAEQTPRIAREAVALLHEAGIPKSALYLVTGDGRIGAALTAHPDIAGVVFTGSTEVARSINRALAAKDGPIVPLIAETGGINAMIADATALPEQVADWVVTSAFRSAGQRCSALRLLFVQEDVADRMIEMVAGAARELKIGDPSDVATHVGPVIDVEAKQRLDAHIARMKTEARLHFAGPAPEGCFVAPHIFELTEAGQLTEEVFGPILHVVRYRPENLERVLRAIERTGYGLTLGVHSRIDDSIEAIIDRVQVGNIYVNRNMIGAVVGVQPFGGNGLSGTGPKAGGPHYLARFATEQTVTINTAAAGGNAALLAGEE

[2] = target: T2, BjPutA (proline utilization A) (Bradyrhizobium diazoefficiens, UniProt Q89E26, D779Y)
T2 sequence (Q89E26 1-999 D779Y): T1 sequence (Q89E26 1-999 D779W) with W779Y

[3] = target: T3, BjPutA (proline utilization A) (Bradyrhizobium diazoefficiens, UniProt Q89E26, D779A)
T3 sequence (Q89E26 1-999 D779A): T1 sequence (Q89E26 1-999 D779W) with W779A

- Kd [1]: 780 ± 50 nM
- Kd [2]: 650 ± 40 nM
- Kd [3]: 640 ± 50 nM
Structure (SMILES): NC(=O)c1ccc[n+]([C@@H]2O[C@H](COP(=O)(O)OP(=O)(O)OC[C@H]3O[C@@H](n4cnc5c(N)ncnc54)[C@H](O)[C@@H]3O)[C@@H](O)[C@H]2O)c1 [NAD^+]

Source: publication PMC4131897 (Biochemistry, 2014)
